Results reported in patent publication US20050255147A1, “Composition for dietary enrichment” (ZOOLIFE INTERNATIONAL LIMITED, priority 2002, published 2005).

Tested on: clown fish
Assay: Skin coloration of clown fish on supplemented diet
Type: in vivo
Conditions: synthetic astaxanthin 1000 mg/kg granulated diet, compositions below 50 mg/kg astaxanthin in final feed

CC1=C(/C=C/C(C)=C/C=C/C(C)=C/C=C/C=C(C)/C=C/C=C(C)/C=C/C2=C(C)C(=O)[C@@H](O)CC2(C)C)C(C)(C)C[C@H](O)C1=O [synthetic astaxanthin, astaxanthin]
skin coloration: do not to significantly alter skin coloration
